Results published in paper PMC4879640 (Frontiers in Microbiology, 2016).

Test system: T1, H6-PnpA (PNP 4-monooxygenase)
T1 construct: N-terminal His6 tag, pET-28a (NdeI-XhoI), E. coli Rosetta(DE3)pLysS; gene pnpA of the pnpABA1CDEF cluster (not pnpA1)
Type: biochemical, Burkholderia sp. SJ98
Conditions: read-out: apparent Km

Cc1cc(O)ccc1[N+](=O)[O-] [3-methyl-4-nitrophenol]
Km: 20.3 ± 2.54 µM
